Assay results taken from US20120230914A1, “LABELING COMPOUND FOR PET” (RIKEN, priority 2009, published 2012).
pKd: −log10 of the molar value.

Assays:
[1] = Reuptake of labeled metabolite: HPLC of blood and brain extracts after tail vein injection; format: in vivo; conditions: male rats, brain sampled 5, 10 and 20 min after injection
Description: 5, 10 and 20 min after the injection, bloods were sampled from aorta adbominalis and then the brains were taken out and homogenized. Acetonitrile was added to the bloods and homogenated brains and the resultants were subjected to centrifugation, and extracts were subjected to HPLC in order to measure labeled metabolites.
Data for “Monkey” shown in FIG. 8 was obtained by sampling vein blood along with PET imaging, centrifuging the sampled vein blood, adding acetonitrile to the blood plasma and centrifuging the blood plasma, and subjecting the extract to HPLC to measure parent compound in the blood plasma.

aromatase [2] = biological target: T1, aromatase (Rattus norvegicus, UniProt P22443); assay: In vitro binding test (ligand saturation, Scatchard plot analysis); set-up: species or system rats
T1 construct: from tissue; host or cells: rat ovary homogenate (female rats)
T1 sequence (P22443 1-508): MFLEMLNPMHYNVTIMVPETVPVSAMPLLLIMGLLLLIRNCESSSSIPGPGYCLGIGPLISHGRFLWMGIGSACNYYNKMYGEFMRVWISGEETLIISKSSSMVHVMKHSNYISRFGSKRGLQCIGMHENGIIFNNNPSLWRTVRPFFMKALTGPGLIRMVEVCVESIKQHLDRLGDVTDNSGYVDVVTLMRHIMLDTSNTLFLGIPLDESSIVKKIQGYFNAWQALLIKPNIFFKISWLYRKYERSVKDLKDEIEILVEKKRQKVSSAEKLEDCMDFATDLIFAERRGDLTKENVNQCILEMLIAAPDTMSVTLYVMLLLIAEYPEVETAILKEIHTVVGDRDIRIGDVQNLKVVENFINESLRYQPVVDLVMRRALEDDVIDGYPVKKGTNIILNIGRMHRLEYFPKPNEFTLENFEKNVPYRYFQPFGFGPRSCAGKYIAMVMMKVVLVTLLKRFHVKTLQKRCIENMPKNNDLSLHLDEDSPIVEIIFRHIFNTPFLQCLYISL
Description: Specifically, female rats were anesthetized with diethyl ether, and 0.01 M phosphate buffered saline (PBS, pH 7.4) was perfused via hearts. Ovaries of the rats were removed immediately and homogenized in 1 mL of a 0.32 M sucrose solution.
After filtration, counting was performed by a γ counter, and the average of KD was calculated by Scatchard plot analysis.

aromatase [3] = biological target: T2, aromatase (Macaca mulatta, UniProt A0A1D5QZ23); assay: PET measurement (binding potential images and SUV in brain regions); conditions: for specific binding in amygdala (binding potential images): male Rhesus macaques, i.v. 33 MBq/kg, 90 min scan, cerebellum as reference region; for binding potential (difference among the compounds): Rhesus macaques, relative to Compounds (10), (22), (33), (39)
T2 sequence (A0A1D5QZ23 1-503): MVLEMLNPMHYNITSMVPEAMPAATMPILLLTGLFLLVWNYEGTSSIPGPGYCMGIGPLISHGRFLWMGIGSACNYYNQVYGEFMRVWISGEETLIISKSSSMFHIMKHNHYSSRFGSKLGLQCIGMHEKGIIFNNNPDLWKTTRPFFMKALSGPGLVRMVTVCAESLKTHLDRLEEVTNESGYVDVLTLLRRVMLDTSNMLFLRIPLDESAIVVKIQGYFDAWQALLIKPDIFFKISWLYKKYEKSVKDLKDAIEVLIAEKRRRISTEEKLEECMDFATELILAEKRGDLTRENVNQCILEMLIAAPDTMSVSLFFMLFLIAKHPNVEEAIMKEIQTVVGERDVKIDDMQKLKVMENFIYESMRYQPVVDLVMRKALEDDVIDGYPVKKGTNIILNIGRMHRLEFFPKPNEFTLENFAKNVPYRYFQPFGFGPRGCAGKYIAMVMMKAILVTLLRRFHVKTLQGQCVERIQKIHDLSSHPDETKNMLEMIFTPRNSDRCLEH
Description: (§1) (i) Male Rhesus macaques were subjected to PET measurement. Specifically, Rhesus macaques were put under sedation with ketalar (10 mg/kg), and intravenous catheters for RI administration were attached to their legs. Thereafter, the Rhesus macaques were anesthetized using propofol (10 mg/kg/h), and were immobilized in a PET scanner.
(§2) After reconstructing images, binding potential (BP) images with cerebellum as a reference region were constructed. The binding potential used herein indicates a value obtained by dividing an association rate constant by a dissociation rate constant.
(§3) SUV is a value obtained by dividing radioactivity density per 1 ml of tissue by radioactivity density per 1 g of body weight, i.e. SUV=radioactivity density per 1 ml of tissue/radioactivity density per 1 g of body weight.

aromatase [4] = assay: as above; conditions: for temporal change in SUV (standardized uptake value) in the latter part of scanning: Rhesus macaques, cerebellum, amygdala, hypothalamus, nucleus accumbens
Description: as §1, §2, §3

aromatase [5] = biological target: T2, aromatase; assay: Replacement test with non-radiolabeled vorozole (PET binding potential); format: in vivo; set-up: allows quantifying aromatase in the brain with higher accuracy; from tissue; host or cells: brain of living male Rhesus macaques (amygdala, hypothalamus, nucleus accumbens); conditions: Rhesus macaques; after non-radiolabeled VOR 100 μg/kg; compared with VOR
Description: 5 min before administration of the Compound (10), non-radiolabeled vorozole (VOR) (100 μg/kg) was administered, and binding potential (BP) of Rhesus macaques were observed.

**Q.** What does the source list for [11CH3]c1ccc(CN(c2ccc(C#N)cc2)n2cnnc2)cc1 [Compound (10), 4-{(4-[^11C]Methylbenzyl)(4H-1,2,4-triazol-4-yl)amino}benzonitrile]?
**A.** reuptake of labeled metabolite into the brain [1]: such reuptake was not observed; affinity relative to VOR (aromatase [2]; from KD values): approximately twice higher affinity than VOR; pKd (aromatase [2]; homogenized rat ovaries, room temperature, 30 min, nonspecific binding with 1 μM non-radiolabeled VOR, read-out: dissociation constant (KD)): 9.52; specific binding in amygdala (binding potential images) (aromatase [3]): specific binding was observed in amygdala; temporal change in SUV (standardized uptake value) in the latter part of scanning (aromatase [4]): decreases as time passes; nonspecific binding of the labeled compound to cerebral cortex etc. (aromatase [4]; male Rhesus macaques, compared to conventional [11C]vorozole): decreased; amount of replaced binding (considered nonspecific binding) (aromatase [5]): smaller amount of replaced binding than the case of VOR

**Q.** What does the source list for [11CH3]c1cccc(CN(c2ccc(C#N)cc2)n2cnnc2)c1 [Compound (22), 4-{(3-[^11C]Methylbenzyl)(4H-1,2,4-triazol-4-yl)amino}benzonitrile]?
**A.** binding potential (difference among the compounds) (aromatase [3]): relatively low binding potential; specific binding in amygdala (binding potential images) (aromatase [3]): specific binding was observed in amygdala; temporal change in SUV (standardized uptake value) in the latter part of scanning (aromatase [4]): decreases as time passes

**Q.** For [11CH3]c1ccc(CN(c2ccc([N+](=O)[O-])cc2)n2cnnc2)cc1 [Compound (33), 4-{(4-[^11C]Methylbenzyl)(4H-1,2,4-triazol-4-yl)amino}nitrobenzene], which “specific binding in amygdala (binding potential images)” value (aromatase [3]) is on record?
**A.** Its value is “specific binding was observed in amygdala”.

**Q.** What about the “temporal change in SUV (standardized uptake value) in the latter part of scanning” value (aromatase [4]) of the same compound?
**A.** Its value is “decreases as time passes”.

**Q.** For [11CH3]c1ccc(CN(c2ccc(C#N)cc2)n2cncn2)cc1 [Compound (39), 4-{(4-[^11C]Methylbenzyl)(1H-1,2,4-triazol-1-yl)amino}benzonitrile], which “binding potential (difference among the compounds)” value (aromatase [3]) is on record?
**A.** Its value is “relatively high binding potential”.

**Q.** What about the “specific binding in amygdala (binding potential images)” value (aromatase [3]) of the same compound?
**A.** Its value is “specific binding was observed in amygdala”.

**Q.** What about the “temporal change in SUV (standardized uptake value) in the latter part of scanning” value (aromatase [4]) of the same compound?
**A.** Its value is “decreases as time passes”.
